Source: the supplement of paper PMC12698765
Structures can show the parent of a compound that is named as a salt. ± gives the standard deviation of the averaged measurements.

Experiments:
[1] = system: 409B2 hiPSC (iCRISPR Cas9, FRMD7 editing); test: cell survival relative to solvent control (fold (ratio to mock)); higher = more surviving cells
Experimental: (§1)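 Subset screen of 55 drugs tested at 5 concentrations around the effective screening dose, in 409B2 iCRISPR Cas9 hiPSCs editing FRMD7 with a ssDNA donor. Drugs were applied for 24 h. Viability was read by resazurin and editing outcomes by amplicon sequencing (HDR, NHEJ <2 bp microhomology, MMEJ ≥2 bp microhomology). Values are relative to solvent mock controls; two biological replicates.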

[2] = system: 409B2 hiPSC (iCRISPR Cas9, FRMD7 editing); test: NHEJ-attributed indel frequency relative to solvent control (fold (ratio to mock)); higher = more NHEJ outcomes
Experimental: as §1

[3] = system: 409B2 hiPSC (iCRISPR Cas9, FRMD7 editing); test: MMEJ-attributed deletion frequency relative to solvent control (fold (ratio to mock)); higher = more MMEJ outcomes
Experimental: as §1

[4] = system: 409B2 hiPSC (iCRISPR Cas9, FRMD7 editing); test: HDR (precise edit) frequency relative to solvent control (fold (ratio to mock)); higher = more homology-directed repair outcomes
Experimental: as §1

Compound	cell survival ([1]; 20 nM)	cell survival ([1]; 50 nM)	cell survival ([1]; 100 nM)	cell survival ([1]; 200 nM)	cell survival ([1]; 500 nM)	NHEJ-attributed indel frequency ([2]; 20 nM)	NHEJ-attributed indel frequency ([2]; 50 nM)	NHEJ-attributed indel frequency ([2]; 100 nM)	NHEJ-attributed indel frequency ([2]; 200 nM)	NHEJ-attributed indel frequency ([2]; 500 nM)	MMEJ-attributed deletion frequency ([3]; 20 nM)	MMEJ-attributed deletion frequency ([3]; 50 nM)	MMEJ-attributed deletion frequency ([3]; 100 nM)	MMEJ-attributed deletion frequency ([3]; 200 nM)	MMEJ-attributed deletion frequency ([3]; 500 nM)	HDR ([4]; 20 nM)	HDR ([4]; 50 nM)	HDR ([4]; 100 nM)	HDR ([4]; 200 nM)	HDR ([4]; 500 nM)	other results
CC(=O)O[C@]1(C(C)=O)CC[C@H]2[C@@H]3C=C(Cl)C4=CC(=O)[C@@H]5C[C@@H]5[C@]4(C)[C@H]3CC[C@@]21C [Cyproterone Acetate] (in DMSO)	0.984	1.23	1.12	1.09	1.23	0.962 ± 0.045	0.9767 ± 0.0039	0.9929 ± 0.0094	1.01 ± 0.014	0.964 ± 0.042	1.18 ± 0.11	0.986 ± 0.03	0.9921 ± 0.0047	0.915 ± 0.022	0.999 ± 0.017	1.1 ± 0.048	1.119 ± 0.007	1.09 ± 0.054	1.03 ± 0.013	1.14 ± 0.058	–
Nc1ccn([C@@H]2O[C@H](CO)[C@@H](O)[C@@H]2O)c(=O)n1 [Cytarabine hydrochloride] (in DMSO)	1.01	0.968	0.672	0.467	0.161	1.02 ± 0.026	1.05 ± 0.022	1.03 ± 0.0015	1.01 ± 0.039	1.04 ± 0.04	0.911 ± 0.12	0.897 ± 0.049	1.1 ± 0.021	1.08 ± 0.13	1.04 ± 0.18	0.71 ± 0.068	0.699 ± 0.1	0.625 ± 0.018	0.652 ± 0.11	0.554 ± 0.099	–
NC(=O)CC[C@@H](N)C(=O)O [D-Glutamine] (in H2O)	0.958	1.03	0.932	1.16	0.888	1.02 ± 0.029	1.03 ± 0.016	1.02 ± 0.028	1.03 ± 0.025	1.01 ± 0.024	0.971 ± 0.055	0.874 ± 0.034	0.887 ± 0.17	0.933 ± 0.064	0.918 ± 0.092	0.953 ± 0.047	0.985 ± 0.033	0.9265 ± 0.0046	0.985 ± 0.031	0.965 ± 0.055	–
O[C@@H]1[C@H](O)[C@H](O)CO[C@H]1O [D-Ribose] (in DMSO)	–	–	–	1.06	1.16	–	–	–	0.9958 ± 0.0022	0.999 ± 0.01	–	–	–	0.939 ± 0.061	1.02 ± 0.1	–	–	–	1.13 ± 0.04	1.01 ± 0.06	cell survival ([1]; 1000 nM): 1.06; cell survival ([1]; 2000 nM): 1.1; cell survival ([1]; 5000 nM): 1.04; NHEJ-attributed indel frequency ([2]; 1000 nM): 0.979 ± 0.013; NHEJ-attributed indel frequency ([2]; 2000 nM): 1 ± 0.012; NHEJ-attributed indel frequency ([2]; 5000 nM): 0.9861 ± 0.0075; MMEJ-attributed deletion frequency ([3]; 1000 nM): 0.965 ± 0.026; MMEJ-attributed deletion frequency ([3]; 2000 nM): 1.012 ± 0.0071; MMEJ-attributed deletion frequency ([3]; 5000 nM): 1.02 ± 0.16; HDR ([4]; 1000 nM): 1.13 ± 0.075; HDR ([4]; 2000 nM): 1.05 ± 0.025; HDR ([4]; 5000 nM): 1.06 ± 0.05
O=C1CN(/N=C/c2ccc(-c3ccc([N+](=O)[O-])cc3)o2)C(=O)N1 [Dantrolene, sodium salt] (in DMSO)	–	–	–	–	–	–	–	–	–	–	–	–	–	–	–	–	–	–	–	–	cell survival ([1]; 2000 nM): 0.934; cell survival ([1]; 5000 nM): 1.39; cell survival ([1]; 10000 nM): 1.14; cell survival ([1]; 20000 nM): 1.33; cell survival ([1]; 50000 nM): 1.33; NHEJ-attributed indel frequency ([2]; 2000 nM): 0.941 ± 0.052; NHEJ-attributed indel frequency ([2]; 5000 nM): 0.9996 ± 0.0056; NHEJ-attributed indel frequency ([2]; 10000 nM): 1.06 ± 0.0076; NHEJ-attributed indel frequency ([2]; 20000 nM): 1.199 ± 0.0027; NHEJ-attributed indel frequency ([2]; 50000 nM): 1.24 ± 0.034; MMEJ-attributed deletion frequency ([3]; 2000 nM): 1.09 ± 0.25; MMEJ-attributed deletion frequency ([3]; 5000 nM): 0.966 ± 0.099; MMEJ-attributed deletion frequency ([3]; 10000 nM): 0.9399 ± 0.0032; MMEJ-attributed deletion frequency ([3]; 20000 nM): 0.997 ± 0.048; MMEJ-attributed deletion frequency ([3]; 50000 nM): 0.979 ± 0.13; HDR ([4]; 2000 nM): 1.04 ± 0.091; HDR ([4]; 5000 nM): 0.873 ± 0.12; HDR ([4]; 10000 nM): 0.851 ± 0.068; HDR ([4]; 20000 nM): 0.547 ± 0.039; HDR ([4]; 50000 nM): 0.508 ± 0.039
CCCCc1oc2ccc(NS(C)(=O)=O)cc2c1C(=O)c1ccc(OCCCN(CCCC)CCCC)cc1 [Dronedarone HCl] (in DMSO)	–	–	–	1.15	1.01	–	–	–	0.991 ± 0.011	1.04 ± 0.043	–	–	–	0.537 ± 0.76	0.463 ± 0.65	–	–	–	0.891 ± 0.2	0.835 ± 0.2	cell survival ([1]; 1000 nM): 0.696; cell survival ([1]; 2000 nM): 0.521; cell survival ([1]; 5000 nM): 0.261; NHEJ-attributed indel frequency ([2]; 1000 nM): 1.01 ± 0.013; NHEJ-attributed indel frequency ([2]; 2000 nM): 0.958 ± 0.093; NHEJ-attributed indel frequency ([2]; 5000 nM): 1.06 ± 0.092; MMEJ-attributed deletion frequency ([3]; 1000 nM): 0.895 ± 0.18; MMEJ-attributed deletion frequency ([3]; 2000 nM): 0.923 ± 0.16; MMEJ-attributed deletion frequency ([3]; 5000 nM): 1.18 ± 0.34; HDR ([4]; 1000 nM): 0.734 ± 0.051; HDR ([4]; 2000 nM): 0.513 ± 0.071; HDR ([4]; 5000 nM): 0.556 ± 0.012
